According to patent US8133691B2, “Stable quantitation and detection of immune response levels with non-zero background peptides” (The Henry M. Jackson Foundation for the Advancement of …, priority 2005, dated 2012):

How the values were obtained:
[1] = system: IFN-gamma-secreting cells (PBMC); test: Ex vivo ELISPOT, PBMC stimulated with artificial APC DYNAL beads + [MHC + peptide]; format: cell-based, human
[2] = system: IFN-gamma-secreting cells (PBMC); test: Ex vivo ELISPOT, PBMC stimulated with plain (non-complexed) peptide; format: cell-based, human; conditions: PBMC 3 × 10^5 cells/well
Method: The term “ELISPOT” is used herein, for purposes of the specification and claims, to mean an adaptation of ELISA in which cells are placed over antibodies or antigens attached to a plastic surface. The antigen or antibody traps the cells' secreted products, which can then be detected by using an enzyme-coupled antibody that cleaves a preferably colorless substrate to make a localized colored spot.
In another embodiment, experiments were conducted with the E75 or Telomerase peptides+HLA beads in ex vivo ELISPOT assays run in the absence of stimulation (i.e. culture medium) or with plain or non-complexed E75 or Telomerase peptides. […] These responses have been reproduced in a number of assays using peripheral blood samples from prostate and breast cancer patients. The beads need not be made by DYNAL Biotech. Another biochemical manufacturer—such as BD Biosciences, may produce them.
In another embodiment, experiments were conducted with the E75 or Telomerase peptides+HLA beads in ex vivo ELISPOT assays run with negative control peptides.

Substance	ELISPOT spots ([1]; 1 × 10^5 beads/well, PBMC 1 × 10^5 cells/well) [spots]	ELISPOT spots ([1]; 1 × 10^5 beads/well, PBMC 2 × 10^5 cells/well) [spots]	ELISPOT spots ([1]; 1 × 10^5 beads/well, PBMC 3 × 10^5 cells/well) [spots]	ELISPOT spots ([1]; 5 × 10^5 beads/well, PBMC 1 × 10^5 cells/well) [spots]	ELISPOT spots ([1]; 5 × 10^5 beads/well, PBMC 2 × 10^5 cells/well) [spots]	ELISPOT spots ([1]; 5 × 10^5 beads/well, PBMC 3 × 10^5 cells/well) [spots]	ELISPOT spots [2] [spots]
E37-ve: DYNAL beads + MHC + E37 negative control peptide (RIAWARTEL) [Peptide E37-ve]	0	6	20	0	3	8	–
NH2-RIAWARTEL-COOH (H-RIAWARTEL-OH) [Peptide E37, negative control peptide]	–	–	–	–	–	–	1
